The source made the active and inactive calls. The rule behind the calls is not given here.
How the values were obtained:
Assay type in all cases: cell-based
[1] = Cytotoxicity against human monocytes at 100 uM after 24 hrs; settings: monocyte
[2] = molecular target: C-C chemokine receptor type 2 (Homo sapiens) (UniProt P41597); test: Inhibition of CCR2 in human monocytes assessed as CCL2-induced cell migration at 10 uM after 1.5 hrs by micro-Boyden chamber
[3] = molecular target: C-C chemokine receptor type 2 (Homo sapiens) (UniProt P41597); test: Inhibition of CCR2 in human monocytes assessed as CCL2-induced cell migration at 100 uM after 1.5 hrs by micro-Boyden chamber
[4] = molecular target: C-C chemokine receptor type 2 (Homo sapiens) (UniProt P41597); test: Inhibition of CCR2 in human monocytes assessed as cell migration at 100 uM after 30 mins

C-C chemokine receptor type 2 (Homo sapiens), sequence (P41597 whole entry, looked up): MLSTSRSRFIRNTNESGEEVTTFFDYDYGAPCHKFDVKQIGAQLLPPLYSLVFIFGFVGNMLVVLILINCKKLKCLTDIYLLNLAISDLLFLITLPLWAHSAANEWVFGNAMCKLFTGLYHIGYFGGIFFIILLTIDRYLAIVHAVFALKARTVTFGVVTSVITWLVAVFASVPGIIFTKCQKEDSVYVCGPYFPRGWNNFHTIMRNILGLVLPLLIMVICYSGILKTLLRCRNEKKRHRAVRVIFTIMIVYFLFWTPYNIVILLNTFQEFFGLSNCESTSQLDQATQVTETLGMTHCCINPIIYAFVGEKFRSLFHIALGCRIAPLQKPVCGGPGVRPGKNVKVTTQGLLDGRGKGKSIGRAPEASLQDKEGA

inhibition [2]	inhibition [3]	inhibition [4]	Structure (SMILES)	Activity [1]
–	–	–	CON1C(=O)C2NC(=O)[C@@]13Oc1cc(O)c(Cl)cc1[C@@H]3SS2	Toxic
Active	–	–	O=C1N[C@H](Cc2cc(Cl)c(O)c(Cl)c2)C(=O)N2CCC[C@H]12	Non-toxic
–	inactive	–	CC(C)C[C@@H]1C(=O)N[C@@H](Cc2c[nH]c3ccccc23)C(=O)N1C	Non-toxic
–	inactive	inactive	O=C1N[C@@H](Cc2ccc(O)cc2)C(=O)N2CCC[C@@H]12	Non-toxic
